Results published in US12673961B2 (Agios Pharmaceuticals, Inc., priority 2022, dated 2026).

The compounds below were run against T1, human PAH with the R408W mutation (Homo sapiens, UniProt P00439, R408W) (assay: Cell Based Phenylalanine Flux Assay). Conditions: A375 cells expressing R408W PAH; 24 hrs with compound, then 20 μM sepiapterin and 800 μM 13C9,15N-Phenylalanine for 4 hours; 13C-Tyrosine in media by LC-MS; average where tested multiple times.
T1 construct: expressed in transfected cells
T1 sequence (P00439 1-452 R408W): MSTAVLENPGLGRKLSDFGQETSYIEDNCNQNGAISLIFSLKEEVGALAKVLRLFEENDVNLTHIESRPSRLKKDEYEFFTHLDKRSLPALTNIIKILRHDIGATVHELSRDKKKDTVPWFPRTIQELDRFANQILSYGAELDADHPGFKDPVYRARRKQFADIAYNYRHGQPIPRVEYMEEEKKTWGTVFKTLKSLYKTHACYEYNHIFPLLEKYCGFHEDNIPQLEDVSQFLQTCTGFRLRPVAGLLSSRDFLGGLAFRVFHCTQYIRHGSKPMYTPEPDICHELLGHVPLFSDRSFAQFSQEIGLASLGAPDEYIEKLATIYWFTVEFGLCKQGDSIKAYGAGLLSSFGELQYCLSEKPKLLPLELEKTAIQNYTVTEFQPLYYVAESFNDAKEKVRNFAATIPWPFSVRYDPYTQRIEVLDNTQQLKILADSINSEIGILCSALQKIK
Design: scale not given here
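Also: Ten-point dose curve from 2-fold serial dilutions, run in duplicate at 0.5% DMSO final, tracer step used 20 µM sepiapterin and 800 µM labeled phenylalanine.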

| Compound | AC50 |
| --- | --- |
| COc1cccn2nc([C@@H]3c4nc[nH]c4CCN3C(=O)c3ccnn3C3CC3)cc12 (single isomer, unassigned) | E, E |
| COc1cccn2nc(C3c4nc[nH]c4CCN3C(=O)c3ccnn3C)cc12 (stereo not drawn) | E, E |

Same assay, conditions: A375 cells expressing R408W PAH; 24 hrs with compound, then 20 μM sepiapterin and 800 μM 13C9,15N-Phenylalanine for 4 hours; 13C-Tyrosine in media by LC-MS; average where tested multiple times; read-out: AC50

| Compound | AC50 [nM] |
| --- | --- |
| Cc1nnc(N2CCc3[nH]cnc3[C@H]2c2cc3cccc(C(F)F)n3n2)o1 (single isomer, unassigned) | > 5000 |
| Cn1cncc1-c1nnc(C(=O)N2CCc3[nH]cnc3[C@@H]2c2cc3cccc(C(F)F)n3n2)o1 (single isomer, unassigned) | > 5000 |

Same assay, conditions: A375 cells expressing human R408W PAH; 24 hrs compound incubation; 13C-Tyrosine by LC-MS; average where tested multiple times; read-out: AC50

| AC50 [nM] | Compound |
| --- | --- |
| > 5000 | O=C(c1nnc(-c2cnn(C3CCC3)c2)o1)N1CCc2[nH]cnc2[C@@H]1c1cc2c(F)cccn2n1 [Example 833, (R)-(5-(1-cyclobutyl-1H-pyrazol-4-yl)-1,3,4-oxadiazol-2-yl)(4-(4-fluoropyrazolo[1,5-a]pyridin-2-yl)-6,7-dihydro-1H-imidazo [4,5-c]pyridin-5(4H)-yl) methanone] |
| 500 to 1000 | Cn1nc(C(F)F)cc1C(=O)N1CCc2[nH]cnc2[C@H]1c1cc2cccc(C(F)(F)F)n2n1 [Example 1386, (S)-(3-(difluoromethyl)-1-methyl-1H-pyrazol-5-yl)(4-(7-(trifluoromethyl)pyrazolo [1,5-a]pyridin-2-yl)-6,7-dihydro-1H-imidazo[4,5-c]pyridin-5(4H)-yl)methanone] |
| 500 to 1000 | O=C(c1nnc(-c2cccnc2)o1)N1CCc2[nH]cnc2[C@H]1c1cc2cccc(C(F)(F)F)n2n1 [Example 1340, (S)-(5-(pyridin-3-yl)-1,3,4-oxadiazol-2-yl)(4-(7-(trifluoromethyl)pyrazolo [1,5-a]pyridin-2-yl)-6,7-dihydro-1H-imidazo[4,5-c]pyridin-5(4H)-yl)methanone] |
| 1000 to 5000 | O=C(c1ccnn1C(F)F)N1CCc2[nH]cnc2[C@@H]1c1cc2c(Cl)cccn2n1 [Example 783, (R)-(4-(4-chloropyrazolo [1,5-a]pyridin-2-yl)-6,7-dihydro-1H-imidazo [4,5-c]pyridin-5(4H)-yl)(1-(difluoromethyl)-1H-pyrazol-5-yl)methanone] |
| 500 to 1000 | Cc1c(-c2nnc(C(=O)N3CCc4[nH]cnc4[C@H]3c3cc4cccc(C(F)(F)F)n4n3)o2)cnn1C [Example 1190, (S)-(5-(1,5-dimethyl-1H-pyrazol-4-yl)-1,3,4-oxadiazol-2-yl)(4-(7-(trifluoromethyl)pyrazolo[1,5-a]pyridin-2-yl)-6,7-dihydro-1H-imidazo [4,5-c]pyridin-5(4H)-yl)methanone] |
| > 5000 | Cc1nc(C(C)(C)O)oc1C(=O)N1CCc2[nH]cnc2[C@@H]1c1cc2c(C)cccn2n1 [Example 755, (R)-(2-(2-hydroxypropan-2-yl)-4-methyloxazol-5-yl)(4-(4-methylpyrazolo[1,5-a]pyridin-2-yl)-6,7-dihydro-1H-imidazo[4,5-c]pyridin-5(4H)-yl)methanone] |
| > 5000 | O=C(c1nnc(-c2ccccn2)o1)N1CCc2[nH]cnc2[C@@H]1c1cc2c(F)cccn2n1 [Example 732, (R)-(4-(4-fluoropyrazolo [1,5-a]pyridin-2-yl)-6,7-dihydro-1H-imidazo[4,5-c]pyridin-5(4H)-yl)(5-(pyridin-2-yl)-1,3,4-oxadiazol-2-yl)methanone] |

Same assay, conditions: A375 cells expressing human R408W PAH; 24 hrs with compound, then sepiapterin and 13C9,15N-Phenylalanine for 4 hours; 13C-Tyrosine by LC-MS; average where tested multiple times; read-out: AC50

| AC50 [nM] | Compound |
| --- | --- |
| 500 to 1000 | CC(C)c1cccn2nc([C@@H]3c4nc[nH]c4CCN3c3nnc(-c4cccnc4)o3)cc12 [Example 2261, (S)-2-(4-(4-isopropylpyrazolo [1,5-a]pyridin-2-yl)-1,4,6,7-tetrahydro-5H-imidazo [4,5-c]pyridin-5-yl)-5-(pyridin-3-yl)-1,3,4-oxadiazole] |
| > 5000 | Cn1nccc1-c1nnc(C(=O)N2CCc3[nH]cnc3[C@@H]2c2cc3c(C(F)F)cccn3n2)o1 [Example 1533, (R)-(4-(4-(difluoromethyl)pyrazolo[1,5-a]pyridin-2-yl)-6,7-dihydro-1H-imidazo [4,5-c]pyridin-5(4H)-yl)(5-(1-methyl-1H-pyrazol-5-yl)-1,3,4-oxadiazol-2-yl)methanone] |
| < 500 | Cn1cc(-c2nc(C3CC3)c(C(=O)N3CCc4[nH]cnc4[C@H]3c3cc4c(C(F)(F)F)cccn4n3)o2)cn1 [Example 2116, (S)-(4-cyclopropyl-2-(1-methyl-1H-pyrazol-4-yl)oxazol-5-yl)(4-(4-(trifluoromethyl)pyrazolo[1,5-a]pyridin-2-yl)-1,4,6,7-tetrahydro-5H-imidazo[4,5-c]pyridin-5-yl)methanone] |
| 1000 to 5000 | Cc1cccn2nc([C@H]3c4nc[nH]c4CCN3C(=O)c3oc(-c4cnn(C)c4)nc3C3CC3)cc12 [Example 2075] |
| 1000 to 5000 | Cc1cnn(C)c1-c1nnc(C(=O)N2CCc3[nH]cnc3[C@@H]2c2cc3cccc(F)n3n2)o1 [Example 1529, (R)-(5-(1,4-dimethyl-1H-pyrazol-5-yl)-1,3,4-oxadiazol-2-yl)(4-(7-fluoropyrazolo [1,5-a]pyridin-2-yl)-6,7-dihydro-1H-imidazo[4,5-c]pyridin-5(4H)-yl)methanone] |
| 1000 to 5000 | O=C(c1nnc(C2CCC2)o1)N1CCc2[nH]cnc2[C@@H]1c1cc2c(F)cccn2n1 [Example 1558, (R)-(5-cyclobutyl-1,3,4-oxadiazol-2-yl)(4-(4-fluoropyrazolo[1,5-a]pyridin-2-yl)-6,7-dihydro-1H-imidazo[4,5-c]pyridin-5(4H)-yl)methanone] |
| 500 to 1000 | Cc1cccc2cc([C@@H]3c4nc[nH]c4CCN3C(=O)c3nnc(-c4ccn(C(F)(F)F)n4)o3)nn12 [Example 1510, (S)-(4-(7-methylpyrazolo [1,5-a]pyridin-2-yl)-6,7-dihydro-1H-imidazo[4,5-c]pyridin-5(4H)-yl)(5-(1-(trifluoromethyl)-1H-pyrazol-3-yl)-1,3,4-oxadiazol-2-yl)methanone] |
| > 5000 | Cc1c(-c2ncc(C(=O)N3CCc4[nH]cnc4[C@@H]3c3cc4c(C(F)F)cccn4n3)o2)cnn1C [Example 2069, (R)-(4-(4-(difluoromethyl)pyrazolo[1,5-a]pyridin-2-yl)-1,4,6,7-tetrahydro-5H-imidazo [4,5-c]pyridin-5-yl)(2-(1,5-dimethyl-1H-pyrazol-4-yl)oxazol-5-yl)methanone] |
| 1000 to 5000 | O=C(c1nnc(-c2cnccn2)o1)N1CCc2[nH]cnc2[C@@H]1c1cc2c(C(F)F)cccn2n1 [Example 1415, (R)-(4-(4-(difluoromethyl)pyrazolo[1,5-a]pyridin-2-yl)-6,7-dihydro-1H-imidazo [4,5-c]pyridin-5(4H)-yl)(5-(pyrazin-2-yl)-1,3,4-oxadiazol-2-yl)methanone] |
| 1000 to 5000 | O=C(c1nnc(-c2ccc(F)cn2)o1)N1CCc2[nH]cnc2[C@H]1c1cc2ccccn2n1 [Example 2365, (S)-(5-(5-fluoropyridin-2-yl)-1,3,4-oxadiazol-2-yl)(4-(pyrazolo[1,5-a]pyridin-2-yl)-6,7-dihydro-1H-imidazo[4,5-c]pyridin-5(4H)-yl)methanone] |
| 500 to 1000 | O=C(c1cnc(-c2cnccn2)o1)N1CCc2[nH]cnc2[C@H]1c1cc2c(C(F)F)cccn2n1 [Example 2242, (S)-(4-(4-(difluoromethyl)pyrazolo[1,5-a]pyridin-2-yl)-1,4,6,7-tetrahydro-5H-imidazo [4,5-c]pyridin-5-yl)(2-(pyrazin-2-yl)oxazol-5-yl) methanone] |
| > 5000 | Cc1cccnc1-c1nnc(N2CCc3[nH]cnc3[C@@H]2c2cc3cccc(Cl)n3n2)o1 [Example 2306, (R)-2-(4-(7-chloropyrazolo [1,5-a]pyridin-2-yl)-1,4,6,7-tetrahydro-5H-imidazo [4,5-c]pyridin-5-yl)-5-(3-methylpyridin-2-yl)-1,3,4-oxadiazole] |
| 1000 to 5000 | O=C(c1nnc(-c2ccn(C(F)(F)F)n2)o1)N1CCc2[nH]cnc2[C@@H]1c1cc2c(F)cccn2n1 [Example 1483, (R)-(4-(4-fluoropyrazolo [1,5-a]pyridin-2-yl)-6,7-dihydro-1H-imidazo[4,5-c]pyridin-5(4H)-yl)(5-(1-(trifluoromethyl)-1H-pyrazol-3-yl)-1,3,4-oxadiazol-2-yl)methanone] |
| > 5000 | Cc1cccc(-c2nnc(N3CCc4[nH]cnc4[C@@H]3c3cc4ccccn4n3)o2)n1 [Example 2343, (R)-2-(6-methylpyridin-2-yl)-5-(4-(pyrazolo[1,5-a]pyridin-2-yl)-1,4,6,7-tetrahydro-5H-imidazo[4,5-c]pyridin-5-yl)-1,3,4-oxadiazole] |
| 1000 to 5000 | Cn1cc(-c2nc(C3CC3)c(C(=O)N3CCc4[nH]cnc4[C@@H]3c3cc4c(C(F)(F)F)cccn4n3)o2)cn1 [Example 2117, (R)-(4-cyclopropyl-2-(1-methyl-1H-pyrazol-4-yl)oxazol-5-yl)(4-(4-(trifluoromethyl)pyrazolo[1,5-a]pyridin-2-yl)-1,4,6,7-tetrahydro-5H-imidazo[4,5-c]pyridin-5-yl)methanone] |

| Compound | AC50 [nM] |
| --- | --- |
| Fc1cccn2nc([C@@H]3c4nc[nH]c4CCN3c3ncc(C(F)(F)F)cn3)cc12 [Example 1778, (S)-4-(4-fluoropyrazolo [1,5-a]pyridin-2-yl)-5-(5-(trifluoromethyl)pyrimidin-2-yl)-4,5,6,7-tetrahydro-1H-imidazo[4,5-c]pyridine] | < 500 |
